Experimental data: patent US6545026B1, “Substituted benzylthiazolidine-2,4-dione derivatives” (Kyorin Pharmaceutical Co., Ltd., priority 1999, dated 2003)
Read-outs that look alike come from different tables or passages of the source.

Experiments:
[1] = molecular target: T1, fused protein of DNA-binding domain of yeast transcription factor with ligand-binding domain of human type PPAR γ (Homo sapiens, UniProt P37231); assay: Test of transactivation on peroxisome proliferator-activated receptor γ (CHO cells, reporter assay)
T1 sequence (P37231 238-503 limits assumed): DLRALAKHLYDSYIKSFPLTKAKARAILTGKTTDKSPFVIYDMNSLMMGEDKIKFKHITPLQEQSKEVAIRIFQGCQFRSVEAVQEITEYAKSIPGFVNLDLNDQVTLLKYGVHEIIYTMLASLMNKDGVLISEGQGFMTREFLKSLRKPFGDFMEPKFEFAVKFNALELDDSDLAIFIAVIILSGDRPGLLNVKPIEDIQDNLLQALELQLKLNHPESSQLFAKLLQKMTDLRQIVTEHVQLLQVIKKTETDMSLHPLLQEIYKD
Procedure: (§1) Test of transactivation on peroxisome proliferator-activated receptors α and γ
(§2) After 24 hours, CAT activity and γ-galactosidase activity were measured.

[2] = molecular target: T2, fused protein of DNA-binding domain of yeast transcription factor with ligand-binding domain of human type PPAR α (Homo sapiens, UniProt Q07869); assay: Test of transactivation on peroxisome proliferator-activated receptor α (CHO cells, reporter assay)
T2 sequence (Q07869 239-466 limits assumed): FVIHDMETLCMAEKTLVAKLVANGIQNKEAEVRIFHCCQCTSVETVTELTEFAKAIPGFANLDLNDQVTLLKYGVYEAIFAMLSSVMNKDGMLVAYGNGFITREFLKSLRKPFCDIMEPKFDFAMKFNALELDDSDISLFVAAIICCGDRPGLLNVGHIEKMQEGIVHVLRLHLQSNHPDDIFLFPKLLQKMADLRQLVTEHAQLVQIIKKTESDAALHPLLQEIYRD
Procedure: as §1, §2

Work on COc1ccc(CC2SC(=O)NC2=O)cc1C(=O)NCc1ccccn1 (stereo not drawn) [Example 1, N-[(2-Pyridyl)methyl]-5-[(2,4-dioxothiazolidin-5-yl)methyl]-2-methoxybenzamide] yielded an EC50 [1] of 300 nM and an EC50 [2] of 353 nM.
COc1ccc(CC2SC(=O)NC2=O)cc1C(=O)NCC1CCCCC1 (stereo not drawn) [Example 4, N-(Cyclohexylmethyl)-5-[(2,4-dioxothiazolidin-5-yl)methyl]-2-methoxybenzamide] was tested, and the EC50 [1] was 230 nM and the EC50 [2] was 300 nM.
With COc1ccc(CC2SC(=O)NC2=O)cc1C(=O)NCc1cccnc1 (stereo not drawn) [Example 2, N-[(3-Pyridyl)methyl]-5-[(2,4-dioxothiazolidin-5-yl)methyl]-2-methoxybenzamide] the EC50 [1] was 960 nM and the EC50 [2] was 420 nM.
In the case of COc1ccc(CC2SC(=O)NC2=O)cc1C(=O)NCc1ccncc1 (stereo not drawn) [Example 3, N-[(4-Pyridyl)methyl]-5-[(2,4-dioxothiazolidin-5-yl)methyl]-2-methoxybenzamide], the EC50 [1] is reported as 140 nM and the EC50 [2] is reported as 235 nM.
For CCCCC/C=C\C/C=C\C=C\[C@@H](O)C/C=C\CCCC(=O)O [(8S)-HETE, reference compound], the EC50 ([2]; read-out: Transactivation PPARα EC50, CHO cells, cotransfected receptor and reporter plasmid, 24 hours, CAT activity) was 1300 nM.
